Results on three molecules are retold here after ChEMBL document CHEMBL1144838, “Use of lantibiotic synthetases for the preparation of bioactive constrained peptides” (Bioorg Med Chem Lett, 2008).

Non-standard residues stand in square brackets, D forms with d. Residues, ends and D or L forms follow the SMILES beside them. Dha = C=C(N)C(=O)O

Broadly, the Ki is the equilibrium dissociation constant of an inhibitor or competing ligand from its target. Lower therefore signals a stronger hold on the target.

For assay [1], the species on record is Mus musculus. Put plainly: Agonist activity at mu opioid receptor in mouse model. The assay is classed as functional.
Assay [2] is filed under the species Mus musculus. Nature of the assay: Agonist activity at mouse delta opioid receptor in mouse model. The assay is classed as functional.
In another assay the target is Tripeptidyl-peptidase 2 (Homo sapiens, UniProt P29144). Nature of the assay: Inhibition of human tripeptidyl peptidase2 from erythrocytes.
Tripeptidyl-peptidase 2, sequence (P29144 whole entry): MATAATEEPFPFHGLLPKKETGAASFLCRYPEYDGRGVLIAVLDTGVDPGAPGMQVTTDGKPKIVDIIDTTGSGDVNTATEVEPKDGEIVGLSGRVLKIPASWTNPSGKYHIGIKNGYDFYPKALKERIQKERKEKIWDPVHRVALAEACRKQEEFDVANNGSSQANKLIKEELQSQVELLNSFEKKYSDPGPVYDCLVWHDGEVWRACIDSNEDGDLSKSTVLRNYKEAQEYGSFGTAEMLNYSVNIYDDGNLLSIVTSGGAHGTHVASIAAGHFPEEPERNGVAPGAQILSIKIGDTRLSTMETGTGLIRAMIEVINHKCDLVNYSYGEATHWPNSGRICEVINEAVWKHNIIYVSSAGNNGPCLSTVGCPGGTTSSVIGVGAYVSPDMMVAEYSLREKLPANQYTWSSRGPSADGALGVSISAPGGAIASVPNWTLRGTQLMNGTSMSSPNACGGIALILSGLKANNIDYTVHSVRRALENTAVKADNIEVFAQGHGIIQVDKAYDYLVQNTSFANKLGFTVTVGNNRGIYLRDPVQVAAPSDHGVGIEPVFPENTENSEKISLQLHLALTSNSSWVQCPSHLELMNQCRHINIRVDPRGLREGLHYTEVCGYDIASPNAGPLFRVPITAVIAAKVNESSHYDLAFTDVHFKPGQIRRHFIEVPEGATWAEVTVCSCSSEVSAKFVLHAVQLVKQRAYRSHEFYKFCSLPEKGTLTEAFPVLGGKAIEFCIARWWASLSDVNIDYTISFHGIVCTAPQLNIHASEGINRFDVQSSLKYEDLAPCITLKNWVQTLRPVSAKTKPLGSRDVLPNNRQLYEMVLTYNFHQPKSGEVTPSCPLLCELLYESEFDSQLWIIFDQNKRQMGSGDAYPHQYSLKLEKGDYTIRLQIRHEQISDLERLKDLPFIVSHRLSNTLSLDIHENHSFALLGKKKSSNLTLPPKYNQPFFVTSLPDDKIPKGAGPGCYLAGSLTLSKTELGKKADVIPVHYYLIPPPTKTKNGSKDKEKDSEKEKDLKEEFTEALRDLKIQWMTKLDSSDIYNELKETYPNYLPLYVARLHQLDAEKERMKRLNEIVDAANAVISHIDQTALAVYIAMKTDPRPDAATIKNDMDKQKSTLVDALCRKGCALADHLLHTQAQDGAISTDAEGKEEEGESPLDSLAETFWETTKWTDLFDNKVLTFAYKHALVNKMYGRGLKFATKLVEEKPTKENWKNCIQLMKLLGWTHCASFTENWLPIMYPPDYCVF

With `CN1CC[C@]23c4c5ccc(O)c4O[C@H]2[C@@H](O)C=C[C@H]3[C@H]1C5` [MORPHINE], the ED50 in the assay filed under Mus musculus [1] and in the assay filed under Mus musculus [2] was 15 nM each time.
Consider `N[C@@H](Cc1ccc(O)cc1)C(=O)N[C@@H]1CSC[C@@H](C(=O)O)NC(=O)[C@H](Cc2ccccc2)NC(=O)CNC1=O`, for which the ED50 in the assay listed under Mus musculus [1] and in the assay listed under Mus musculus [2] was 0.0018 nM each time.
`C=C(NC(=O)[C@H](C)NC(=O)[C@@H](N)CCCNC(=N)N)C(=O)N[C@H](C(=O)N[C@@H](C)C(=O)O)C(C)C` (H-RA[Dha]VA-OH) displayed an inhibition constant (Ki) on Tripeptidyl-peptidase 2 of 20 nM.
